Assay results reported in US6649595B2, “Regulation of biological events using novel compounds” (ARIAD Gene Therapeutics, Inc., priority 1995, dated 2003).
Read-outs that look alike come from different tables or passages of the source.

Target: T1, FKBPwt (Homo sapiens, UniProt P62942)
T1 construct: made in house
Experiment: Competitive fluorescence polarization (FP) binding assay of rapalogs to FKBP

[1] = =IC50/IC50 of rapamycin, C7 rapalogs
[2] = C7 rapalogs, read-out: FKBPwt FP binding assay IC50
[3] = =IC50/IC50 of rapamycin, C24 analogs, Table 4
[4] = rapamycin C24 analogs, Table 4, read-out: FKBPwt FP binding assay IC50
[5] = FKBPwt FP binding assay IC50 (nM), C7 rapalogs
[6] = FKBPwt FP binding assay IC50 (nM)

T1 sequence (P62942 whole entry): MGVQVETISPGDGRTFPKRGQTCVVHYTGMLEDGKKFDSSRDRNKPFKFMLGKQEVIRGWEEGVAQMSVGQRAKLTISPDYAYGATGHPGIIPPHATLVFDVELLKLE

Row | fold loss in affinity (cf rapamycin) [1] | IC50 [2] | fold loss in affinity (vs rapamycin) [3] | IC50 [4] | Compound | other results
1 | – | – | 3461 | 7960 nM | COC1CC2CCC(C)C(O)(O2)C(=O)C(=O)N2CCCCC2C(=O)OC(C(C)CC2CCC(O)C(OC)C2)CC(=NOCC(=O)O)C(C)C=C(C)C(O)C(OC)C(=O)C(C)CC(C)C=CC=CC=C1C (single isomer, unassigned) [Compound 13, Rapamycin (E and Z)-24-(O-carboxymethyloxime)] | –
2 | – | – | 1022 | 2350 nM | COC1CC2CCC(C)C(O)(O2)C(=O)C(=O)N2CCCCC2C(=O)OC(C(C)CC2CCC(O)C(OC)C2)CC(=NOCC(=O)O)C(C)C=C(C)C(O)C(OC)C(=O)C(C)CC(C)C=CC=CC=C1C (single isomer, unassigned) [Compound 14, Rapamycin (E and Z)-24-(O-carboxymethyloxime)] | –
3 | – | – | 25.7 | 59.1 nM | COC1CC2CCC(C)C(O)(O2)C(=O)C(=O)N2CCCCC2C(=O)OC(C(C)CC2CCC(O)C(OC)C2)C/C(=N\O)C(C)C=C(C)C(O)C(OC)C(=O)C(C)CC(C)C=CC=CC=C1C (stereo not shown) [Compound 18] | –
4 | – | – | 500 | 1150 nM | COC1CC2CCC(C)C(O)(O2)C(=O)C(=O)N2CCCCC2C(=O)OC(C(C)CC2CCC(O)C(OC)C2)CC(=NOCC(N)=O)C(C)C=C(C)C(O)C(OC)C(=O)C(C)CC(C)C=CC=CC=C1C (single isomer, unassigned) [Compound 15, Rapamycin (E and Z)-24-(O-carboxamidomethyloxime)] | –
5 | – | – | 1046 | 2410 nM | COC1CC2CCC(C)C(O)(O2)C(=O)C(=O)N2CCCCC2C(=O)OC(C(C)CC2CCC(O)C(OC)C2)C/C(=N\OC(C)(C)C)C(C)C=C(C)C(O)C(OC)C(=O)C(C)CC(C)C=CC=CC=C1C (stereo not shown) [Compound 20] | –
6 | – | – | 190 | 438 nM | CON=C1CC(C(C)CC2CCC(O)C(OC)C2)OC(=O)C2CCCCN2C(=O)C(=O)C2(O)OC(CCC2C)CC(OC)C(C)=CC=CC=CC(C)CC(C)C(=O)C(OC)C(O)C(C)=CC1C (single isomer, unassigned) [Compound 6, Rapamycin (E and Z)-24-(O-methyloxime)] | –
7 | – | – | 890 | – | COC1CC2CCC(C)C(O)(O2)C(=O)C(=O)N2CCCCC2C(=O)OC(C(C)CC2CCC(O)C(OC)C2)CC(=NOCC(C)C)C(C)C=C(C)C(O)C(OC)C(=O)C(C)CC(C)C=CC=CC=C1C (stereo not shown) [Compound 10, Rapamycin (E and Z)-24-(O-isobutyloxime)] | –
8 | – | – | 88.7 | 204 nM | COC1CC2CCC(C)C(O)(O2)C(=O)C(=O)N2CCCCC2C(=O)OC(C(C)CC2CCC(O)C(OC)C2)CC(=NOCC(N)=O)C(C)C=C(C)C(O)C(OC)C(=O)C(C)CC(C)C=CC=CC=C1C (single isomer, unassigned) [Compound 16, Rapamycin (E and Z)-24-(O-carboxamidomethyloxime)] | –
9 | – | – | 269 | 618 nM | COC1CC2CCC(C)C(O)(O2)C(=O)C(=O)N2CCCCC2C(=O)OC(C(C)CC2CCC(O)C(OC)C2)C/C(=N/O)C(C)C=C(C)C(O)C(OC)C(=O)C(C)CC(C)C=CC=CC=C1C (stereo not shown) [Compound 17] | –

Continued, compound first:

Row | Compound | fold loss in affinity (cf rapamycin) [1] | IC50 [2] | fold loss in affinity (vs rapamycin) [3] | IC50 [4] | other results
10 | CO[C@@H]1C[C@H](C[C@@H](C)[C@@H]2CC(=O)[C@H](C)/C=C(\C)[C@@H](O)[C@@H](OC)C(=O)[C@H](C)C[C@H](C)/C=C/C=C/C=C(\C)[C@H](c3ccc(C(C)(C)C)s3)C[C@@H]3CC[C@@H](C)[C@@](O)(O3)C(=O)C(=O)N3CCCC[C@H]3C(=O)O2)CC[C@H]1O [Compound 40] | 1.5 | 3.4 nM | – | – | –
11 | apamycin (E and Z)-24-(O-benzyloxime) [Compound 11] | – | – | – | – | fold loss in affinity (vs rapamycin): 3627; IC50 (read-out: FKBPwt FP binding assay IC50): 8340 nM
12 | CO[C@@H]1C[C@H](C[C@@H](C)[C@@H]2CC(=O)[C@H](C)/C=C(\C)[C@@H](O)[C@@H](OC)C(=O)[C@H](C)C[C@H](C)/C=C/C=C/C=C(\C)[C@@H](c3ccco3)C[C@@H]3CC[C@@H](C)[C@@](O)(O3)C(=O)C(=O)N3CCCC[C@H]3C(=O)O2)CC[C@H]1O [Compound 34] | 12 | – | – | – | IC50 [5]: 28 nM
13 | COc1ccc(C2CC3CCC(C)C(O)(O3)C(=O)C(=O)N3CCCCC3C(=O)OC(C(C)CC3CCC(O)C(OC)C3)CC(=O)C(C)C=C(C)C(O)C(OC)C(=O)C(C)CC(C)C=CC=CC=C2C)c(OC)c1 (single isomer, unassigned) [Compound 43] | 8.7 | 20 nM | – | – | –
14 | COC1CC2CCC(C)C(O)(O2)C(=O)C(=O)N2CCCCC2C(=O)OC(C(C)CC2CCC(O)C(OC)C2)C/C(=N/OC(C)(C)C)C(C)C=C(C)C(O)C(OC)C(=O)C(C)CC(C)C=CC=CC=C1C (stereo not shown) [Compound 19] | – | – | >13043 | > 30000 nM | –
15 | CO[C@@H]1C[C@H](C[C@@H](C)[C@@H]2CC(=O)[C@H](C)/C=C(\C)[C@@H](O)[C@@H](OC)C(=O)[C@H](C)C[C@H](C)/C=C/C=C/C=C(\C)[C@@H](c3c[nH]c4ccccc34)C[C@@H]3CC[C@@H](C)[C@@](O)(O3)C(=O)C(=O)N3CCCC[C@H]3C(=O)O2)CC[C@H]1O [Compound 44] | 3.3 | 7.8 nM | – | – | –
16 | CCOC1C[C@@H]2CC[C@@H](C)[C@@](O)(O2)C(=O)C(=O)N2CCCC[C@H]2C(=O)OC([C@H](C)C[C@@H]2CC[C@@H](O)[C@H](OC)C2)CC(=O)[C@H](C)/C=C(\C)[C@@H](O)[C@@H](OC)C(=O)[C@H](C)C[C@H](C)/C=C/C=C/C=C/1C (stereo partly shown) [Compound 28] | 1.6 | 3.7 nM | – | – | –
17 | CO[C@@H]1C[C@H](C[C@@H](C)[C@@H]2CC(=O)[C@H](C)/C=C(\C)[C@@H](O)[C@@H](OC)C(=O)[C@H](C)C[C@H](C)/C=C/C=C/C=C(\C)[C@@H](OC(C)C)C[C@@H]3CC[C@@H](C)[C@@](O)(O3)C(=O)C(=O)N3CCCC[C@H]3C(=O)O2)CC[C@H]1O [Compound 29] | 1.0 | 2.2 nM | – | – | –
18 | COC(=O)N[C@@H]1C[C@@H]2CC[C@@H](C)[C@@](O)(O2)C(=O)C(=O)N2CCCC[C@H]2C(=O)O[C@H]([C@H](C)C[C@@H]2CC[C@@H](O)[C@H](OC)C2)CC(=O)[C@H](C)/C=C(\C)[C@@H](O)[C@@H](OC)C(=O)[C@H](C)C[C@H](C)/C=C/C=C/C=C/1C [Compound 31] | 1.1 | 2.6 nM | – | – | –
19 | CO[C@@H]1C[C@H](C[C@@H](C)[C@@H]2CC(=O)[C@H](C)/C=C(\C)[C@@H](O)[C@@H](OC)C(=O)[C@H](C)C[C@H](C)/C=C/C=C/C=C(\C)[C@H](c3ccc(C)s3)C[C@@H]3CC[C@@H](C)[C@@](O)(O3)C(=O)C(=O)N3CCCC[C@H]3C(=O)O2)CC[C@H]1O [Compound 37] | – | – | – | – | fold loss in affinity (cf rapamycin): 1.9; IC50 [6]: 4.3 nM
20 | CO[C@H]1C[C@@H]2CC[C@@H](C)[C@@](O)(O2)C(=O)C(=O)N2CCCC[C@H]2C(=O)O[C@H]([C@H](C)C[C@@H]2CC[C@@H](O)[C@H](OC)C2)C/C(=N\OCc2ccccc2)[C@H](C)/C=C(\C)[C@@H](O)[C@@H](OC)C(=O)[C@H](C)C[C@H](C)/C=C/C=C/C=C/1C [Compound 12, apamycin (E and Z)-24-(O-benzyloxime)] | – | – | 616 | 1420 nM | –
21 | CO[C@@H]1C[C@H](C[C@@H](C)[C@@H]2CC(=O)[C@H](C)/C=C(\C)[C@@H](O)[C@@H](OC)C(=O)[C@H](C)C[C@H](C)/C=C/C=C/C=C(\C)[C@H](c3c[nH]c4ccccc34)C[C@@H]3CC[C@@H](C)[C@@](O)(O3)C(=O)C(=O)N3CCCC[C@H]3C(=O)O2)CC[C@H]1O [Compound 45] | 2.6 | 5.9 nM | – | – | –
22 | CO[C@@H]1C[C@H](C[C@@H](C)[C@@H]2CC(=O)[C@H](C)/C=C(\C)[C@@H](O)[C@@H](OC)C(=O)[C@H](C)C[C@H](C)/C=C/C=C/C=C(\C)[C@@H](NS(C)(=O)=O)C[C@@H]3CC[C@@H](C)[C@@](O)(O3)C(=O)C(=O)N3CCCC[C@H]3C(=O)O2)CC[C@H]1O [Compound 33] | 1.1 | 2.5 nM | – | – | –
23 | CO[C@@H]1C[C@H](C[C@@H](C)[C@@H]2CC(=O)[C@H](C)/C=C(\C)[C@@H](O)[C@@H](OC)C(=O)[C@H](C)C[C@H](C)/C=C/C=C/C=C(\C)[C@@H](c3ccc(C)s3)C[C@@H]3CC[C@@H](C)[C@@](O)(O3)C(=O)C(=O)N3CCCC[C@H]3C(=O)O2)CC[C@H]1O [Compound 36] | – | – | – | – | fold loss in affinity (cf rapamycin): 1.6; IC50 [6]: 3.7 nM
24 | CO[C@@H]1C[C@H](C[C@@H](C)[C@@H]2CC(=O)[C@H](C)/C=C(\C)[C@@H](O)[C@@H](OC)C(=O)[C@H](C)C[C@H](C)/C=C/C=C/C=C(\C)[C@H](c3ccco3)C[C@@H]3CC[C@@H](C)[C@@](O)(O3)C(=O)C(=O)N3CCCC[C@H]3C(=O)O2)CC[C@H]1O [Compound 35] | 13 | – | – | – | IC50 [5]: 29 nM
25 | COc1ccc(C2CC3CCC(C)C(O)(O3)C(=O)C(=O)N3CCCCC3C(=O)OC(C(C)CC3CCC(O)C(OC)C3)CC(=O)C(C)C=C(C)C(O)C(OC)C(=O)C(C)CC(C)C=CC=CC=C2C)c(OC)c1 (single isomer, unassigned) [Compound 42] | 1.0 | 2.2 nM | – | – | –
26 | COC(=O)N[C@H]1C[C@@H]2CC[C@@H](C)[C@@](O)(O2)C(=O)C(=O)N2CCCC[C@H]2C(=O)O[C@H]([C@H](C)C[C@@H]2CC[C@@H](O)[C@H](OC)C2)CC(=O)[C@H](C)/C=C(\C)[C@@H](O)[C@@H](OC)C(=O)[C@H](C)C[C@H](C)/C=C/C=C/C=C/1C [Compound 32] | 1.9 | 4.3 nM | – | – | –
27 | CCOC1C[C@@H]2CC[C@@H](C)[C@@](O)(O2)C(=O)C(=O)N2CCCC[C@H]2C(=O)OC([C@H](C)C[C@@H]2CC[C@@H](O)[C@H](OC)C2)CC(=O)[C@H](C)/C=C(\C)[C@@H](O)[C@@H](OC)C(=O)[C@H](C)C[C@H](C)/C=C/C=C/C=C/1C (stereo partly shown) [Compound 27] | 1.1 | 2.6 nM | – | – | –
28 | CCc1ccc([C@H]2C[C@@H]3CC[C@@H](C)[C@@](O)(O3)C(=O)C(=O)N3CCCC[C@H]3C(=O)O[C@H]([C@H](C)C[C@@H]3CC[C@@H](O)[C@H](OC)C3)CC(=O)[C@H](C)/C=C(\C)[C@@H](O)[C@@H](OC)C(=O)[C@H](C)C[C@H](C)/C=C/C=C/C=C/2C)s1 [Compound 38] | 1.1 | 2.5 nM | – | – | –
